Earlier results on three substances are cited in patent publication US4639511A, “Des-19-leucine-calcitonin analogs” (Armour Pharmaceutical Company, priority 1985, dated 1987).

The conditions of series [1]: literature values, Monikawa et al.
Series [2] relates to serum calcium concentration. The note with it: standard used in the rat assay.

Positions of bridges follow the written chain, without caps; N, C: chain ends. No end group written: not given here.

As for “(1,7-α-L-aminosuberic acid)eel calcitonin”, the hypocalcemic potency result in series [1] was “about 3400 IU/mg”.
Consider “eel calcitonin (CSNLSTCVLGKLSQELHKLQTYPRTDVGAGTP-NH2; disulfide 1-7; ends not checked; UniProt P01262 1-32, looked up) [synthetic eel calcitonin, synthetic eel calcitonin from Monikawa et al]”, for which the hypocalcemic potency result in series [1] is given as “around 4300 IU/mg”.
Regarding “salmon calcitonin [standard salmon calcitonin]”, the “potency of the standard salmon calcitonin, independently determined” value in series [2] is on record as “greater than 4,000 IU/mg”.
